Legend:
[1] = system: clone 3 cells (stable Saos-2 osteosarcoma clone); assay: MTT cell viability assay; type: cell-based, human
Protocol: To verify the property of the stable single cell population as an assay system to measure HIF activity, a proof of concept study was performed with commercially available and known HIF inhibitors. […] Treatment of these drugs in certain cancer cells leads to cell death. […] The 3-(4,5-dimethylthiazol-2-yl)-2,5-[…] bromide MTT assay was used. […] The cells were then incubated in either normoxic or hypoxic conditions for 24 hours. After the treatment, cell culture media was replaced with fresh serum-free DMEM containing 0.5 mg/ml MTT. After 4 hours of incubation in a humidified CO2 incubator at 37° C., formazan precipitates were dissolved with 100 μl of DMSO. The resulting reaction was read using a microplate reader at 570 nm absorbance and 630 nm as the reference wavelength. The half maximal inhibitory concentration (IC50) of each drug towards the cells was determined by plotting graphs using the Graphpad Prism 5 software. HIF inhibitory effects at the various concentrations of drugs tested were also measured using the single luciferase assay system. A correlation between the drugs' effects on cell viability and HIF inhibition was then evaluated.

HIF = HIF activity reporter assay (single luciferase assay, 4XEPO-HRE-FLuc stable Saos-2 clone 3); type: cell-based, human; settings: for reporter signal intensities: FIGS. 9A and B legend
Protocol: To confirm the HIF reporter activity of neomycin-resistant parental population, a single luciferase assay was conducted. Initially, 2.5×10^4 of the cells were plated in wells of a 48-well plates in antibiotic-free DMEM with 10% FBS for 16 hours. One of the plates was then incubated for 24 hours in a normoxic (21% 02) gaseous atmosphere in a humidified CO2 incubator while the other was incubated in a hypoxic (0.5% 02) gaseous environment in a hypoxic chamber (BioSpherix, USA) controlled by an oxygen regulator (ProOx model 110, BioSpherix, USA. After 24 hours of exposure to different oxygen concentrations, Bright-Glo™ Luciferase Assay (Promega, USA) was conducted to analyse the HIF reporter activity. Initially, growth media in each well was discarded and the cells were rinsed once with 300 μl of 1×PBS. Room temperature-equilibrated Glo Lysis Buffer (GLB; 60 μl) was then added into the wells. Plates were then gently rocked on a shaker for 5 min at room temperature. Cell lysis was confirmed visually by observing the wells of the 48-well plate under a light microscope. Thirty microliters of the resulting cell lysates were then transferred into individual glass vials. Bright-Glo™ Assay Reagent was then added into each tube at a 1:1 (v/v) ratio. Luminescence intensity was immediately read and recorded by a Luminometer (Sirius-2, Titertek-Berthold).
To verify the property of the stable single cell population as an assay system to measure HIF activity, a proof of concept study was performed with commercially available and known HIF inhibitors. […] Treatment of these drugs in certain cancer cells leads to cell death. To confirm that the inhibition of bioluminescence in our cell assay system is due to HIF inhibition rather than this cytotoxic effect, we simultaneously determined the viability of cells under various concentrations of each drug used for the inhibition assay. The 3-(4,5-dimethylthiazol-2-yl)-2,5-[…] bromide MTT assay was used. […] The cells were then incubated in either normoxic or hypoxic conditions for 24 hours. After the treatment, cell culture media was replaced with fresh serum-free DMEM containing 0.5 mg/ml MTT. After 4 hours of incubation in a humidified CO2 incubator at 37° C., formazan precipitates were dissolved with 100 μl of DMSO. The resulting reaction was read using a microplate reader at 570 nm absorbance and 630 nm as the reference wavelength. The half maximal inhibitory concentration (IC50) of each drug towards the cells was determined by plotting graphs using the Graphpad Prism 5 software. HIF inhibitory effects at the various concentrations of drugs tested were also measured using the single luciferase assay system. A correlation between the drugs' effects on cell viability and HIF inhibition was then evaluated.

SMILES | cell viability ([1]; concentrations higher than 500 nM) | cell viability ([1]; concentrations of up to 500 nM) | reporter signal intensities (HIF) | hypoxia-induced luciferase signal (HIF; clone 3 cells, hypoxia, concentrations of up to 500 nM) | inhibition of luciferase signals (HIF; hypoxic clone 3, 25 μM concentration) [%]
CC(C)C[C@H](NC(=O)[C@H](Cc1ccccc1)NC(=O)c1cnccn1)B(O)O [Bortezomib] | the inhibition was associated with cell death | without affecting cell viability | reduction of reporter signal intensities | significantly reduced | 
N.N.[Cl][Pt][Cl] [cisplatin] |  |  | reduction of reporter signal intensities |  | ~60

Reference: patent US9995730B2, “Hypoxia Inducible Factor (HIF) Activity Reporter Cell Line” (Universiti Putra Malaysia (UPM), priority 2012, dated 2018)
